This note sets out measurements from patent publication US8796275B2, “Anti-malarial compounds” (The Trustees of the University of Pennsylvania, priority 2008, dated 2014).

Where two headings read alike, the source gives them in different places.

In series [1] the target is 3D7 strain of P. falciparum. The series can be described thus: High throughput quantitative parasite growth assay, luciferase expressing parasites. Type of series: cell-based, Plasmodium falciparum. Conditions: luciferase readout, approximately 60 hours growth. As for the experimental part:
Numerous compounds were initially screened using a high throughput quantitative parasite growth assay that makes use of a strain of parasites expressing a cytoplasmic firefly luciferase (obtained from Dr. Kirk Deitsch, Cornell Medical College). These parasites were transfected with a vector containing the firefly luciferase gene using the malarial HRPII promoter. To grow parasites, culture dishes ranging from 96 well plates to 30 ml dishes were used. […] Parasites were cultured in human RBCs under an atmosphere of 5% O2/7% CO2/88% N2 in RPMI 1640 medium supplemented with 25 mM Hepes, 30 mg/L hypoxanthine, 0.225% (w/v) NaHCO3 and 0.5% (w/v) Albumax II (Life Technologies, Grand Island, N.Y.).
A standard luminescent readout was used to measure the growth of parasites. Parasites were grown under normal conditions, lysed in the presence of the luminescence reagents (Bright Glo, Promega) and then measured. To initially test for growth, luciferase expressing parasites were synchronized using serial sorbitol treatments and then parasitemia, the percentage of RBCS infected with parasites, was adjusted using uninfected RBCs. 100 μl of total media was used in a 96 well format. Parasitized RBCs were incubated in 96 well plates at 37° C. and gassed with 5% CO2, 5% O2, 90% N2. Parasites were allowed to grow for approximately 60 hours, until they successfully divided, ruptured and reinvaded new RBCs. At 10-15 hours post invasion, the cells were lysed, and luciferase levels were measured using an Analyst HT luminometer (Molecular Devices).

Series [2] has as its system P. falciparum. The series can be described thus: Anti-parasitic activity in vitro, human red blood cell assay. Type of series: cell-based, Plasmodium falciparum. On the procedure:
Anti-parasitic activities were measured in vitro using a human red blood cell assay. A single P. falciparum organism typically infects an erythrocyte and produces 24 progeny within 48 hours following infection. The progeny are released and rapidly infect neighboring red blood cells. […] Observations were also made during the 48 hour incubation period to assess the susceptibility of the parasite during lifecycle stages inside and outside the host erythrocyte. […] One goal of targeting parasite membranes, rather than proteins or metabolic pathways, represents a highly innovative and novel strategy for treating parasitic diseases and distinguishes this approach from most others in this field.

Series [3] relates to uninfected red blood cells.
Series [4] has as its system human HepG2 cells.
Series [5] relates to P. falciparum DD2. The series can be described thus: microbe, parasite or virus in culture. It counts as cell-based, Plasmodium falciparum. Conditions: for IC50: Plasmodium falciparum, DD2, read-out: IC50 (DD2). The source says:
(§1) Flow cytometry was used for quantitation of parasitemia using SYOX Green on an LSRII.

Series [6] relates to food vacuole. The series is described as follows: Food vacuole integrity, parasites expressing plasmepsin II-YFP, fluorescence microscopy. It counts as cell-based, Plasmodium falciparum. The conditions noted are these: plasmepsin II-YFP marker.
Series [7] deals with P. falciparum 3D7. The series is described as follows: Cultures of P. falciparum 3D7, flow cytometry quantitation of parasitemia. It counts as cell-based. Conditions: Plasmodium falciparum.
From the text: as §1
A general note: Flow cytometry measures light scatter and fluorescence of single cells or particles in a stream.

Where [8] appears, read: Plasmodium falciparum, 3D7, 60 h.

For orientation: IC50 means the concentration that gives 50% inhibition. Consider `NCCCc1ccc(-c2ccc3sc4ccc(-c5ccc(CCCN)cc5)cc4c3c2)cc1` [Compound 130], for which the IC50 in series [1] is 2560 nM.

Regarding `NCCCc1cccc(-c2ccc3sc4ccc(-c5cccc(CCCN)c5)cc4c3c2)c1` [Compound 116], the IC50 is 50 nM in series [2] (Plasmodium falciparum, Erythrocyte, minimum concentration resulting in 50% killing, 48 hour incubation) and 318 nM in series [1] (setting [8]). Also, in series [2] (minimum concentration resulting in 50% killing, 48 hour incubation), the “IC50 (μM)” value is recorded as “sub-μM”. The “IC100” value in series [2] (minimum concentration resulting in 100% killing, 48 hour incubation) was 0.850 µM. Besides, in series [2] (single concentration 10 μM), the “% Kill @ 10 μM” value was 100%.

Compound `N=C(N)NCCCCC(=O)Nc1cc(Br)cc(NC(=O)c2cc(C(=O)Nc3cc(Br)cc(NC(=O)CCCCNC(=N)N)c3SCCNC=O)ncn2)c1SCCNC=O` [Compound 125] returned a 50% inhibitory concentration (IC50) in series [1] (setting [8]) of 286 nM.

The compound `CCn1c2ccc(-c3cccc(CCCN)c3)cc2c2cc(-c3cccc(CCCN)c3)ccc21` [Compound 137] yielded an IC50 in series [1] (setting [8]) of 604 nM.

Compound `NCCN1CC=C(c2ccc3sc4ccc(C5=CCN(CCN)CC5)cc4c3c2)CC1` [Compound 136] showed an IC50 in series [1] (setting [8]) of 958 nM.

`NCCCc1cccc(-c2ccc3c(c2)-c2cc(-c4cccc(CCCN)c4)ccc2S3(=O)=O)c1` [Compound 141] came in with a concentration for half-maximal inhibition (IC50) in series [1] of 1340 nM.

In series [1] (setting [8]), `N=C(N)NCCCc1cccc(-c2ccc3sc4ccc(-c5cccc(CCCNC(=N)N)c5)cc4c3c2)c1` [Compound 139] displayed an IC50 of 1170 nM.

For `NCCc1cccc(-c2ccc3sc4ccc(-c5cccc(CCN)c5)cc4c3c2)c1` [Compound 106], in series [3], the hemolytic entry is recorded as “Neither compound, however, was hemolytic”. For the same compound, the cytotoxicity in series [4] is 40 to 50 µM. For the same compound, the “effectiveness in strain DD2” value in series [5] (DD2 strain) is “effective”. The IC50 amounted to 100 nM in series [5]; 150 nM in series [7] (3D7 strain, read-out: IC50 (3D7)); 1150 nM in series [1] (setting [8]). For the same compound, the “disruption of food vacuoles” value in series [6] is “disrupted food vacuoles”.

`C1=C(c2ccc3sc4ccc(C5=CCNCC5)cc4c3c2)CCNC1` [Compound 138] yielded a concentration for half-maximal inhibition (IC50) in series [1] (setting [8]) of 213 nM.

In series [1] (setting [8]), `NCCNCc1cncc(-c2ccc3sc4ccc(-c5cncc(CNCCN)c5)cc4c3c2)c1` [Compound 140] came in with an IC50 of 1670 nM.

`C[C@H]1[C@H](OC(=O)CCC(=O)O)O[C@@H]2O[C@@]3(C)CC[C@H]4[C@H](C)CC[C@@H]1[C@@]24OO3` [Artesunate, artesunate, reference compound] had an IC50 in series [1] (setting [8]) of 9 nM.

In series [1] (setting [8]), `NCCCc1cccc(-c2ccc3[nH]c4ccc(-c5cccc(CCCN)c5)cc4c3c2)c1` [Compound 119] returned an IC50 of 1860 nM.

The compound `COc1ccc(CCN)cc1-c1ccc2sc3ccc(-c4cc(CCN)ccc4OC)cc3c2c1` [Compound 135] registered an IC50 in series [1] (setting [8]) of 108 nM.

Turning to `NCCc1cccc(-c2ccc3c(c2)c2cc(-c4cccc(CCN)c4)ccc2[s+]3[O-])c1` [Compound 134], in series [1] (setting [8]), half-maximal inhibition (IC50) was put at 2440 nM.

Compound `c1cc(N2CCNCC2)ncc1-c1ccc2sc3ccc(-c4ccc(N5CCNCC5)nc4)cc3c2c1` [Compound 117] had an IC50 in series [1] (setting [8]) of 301 nM.

`NCCCc1cccc(-c2ccc3c(c2)-c2cc(-c4cccc(CCCN)c4)ccc2S3(=O)=O)c1` [Compound 133] returned an IC50 in series [1] (setting [8]) of 2030 nM.

For the compound `CCN(CC)CCCC(C)Nc1ccnc2cc(Cl)ccc12` (stereo not shown) [chloroquine, reference compound], the “resistance of DD2 strain relative to 3D7 strain” value in series [5] (DD2 vs 3D7) is 4 times. In addition, the IC50 in series [5] was found to be 80 nM; in series [7] (3D7, read-out: IC50 (3D7)) it was 20 nM.

`NCCCc1cccc(-c2ccc3oc4ccc(-c5cccc(CCCN)c5)cc4c3c2)c1` [Compound 120] displayed an IC50 in series [1] (setting [8]) of 604 nM.

Turning to `c1cc(N2CCNCC2)ccc1-c1ccc2sc3ccc(-c4ccc(N5CCNCC5)cc4)cc3c2c1` [Compound 132], half-maximal inhibition in series [1] (setting [8]) (IC50) was put at 236 nM.

On to `NCc1cccc(-c2ccc3[nH]c4ccc(-c5cccc(CN)c5)cc4c3c2)c1` [Compound 118], for which the IC50 in series [1] (setting [8]) was 364 nM.

Compound `c1cc(-c2ccc3sc4ccc(-c5ccnc(N6CCNCC6)c5)cc4c3c2)cc(N2CCNCC2)n1` [Compound 110] had an IC50 in series [1] (setting [8]) of 584 nM.

`NCc1cccc(-c2ccc3sc4ccc(-c5cccc(CN)c5)cc4c3c2)c1` [Compound 131] showed an IC50 in series [1] of 235 nM.
